Data on 2 compounds can be found in patent US20080194492A1, “Plant Extracts for the Treatment of Incresed Bone Resorption” (priority 2003, published 2008).

The test concerns osteoclasts of new-born rats. In words: osteoclast pit assay (in vitro resorption activity of osteoclasts on ivory slices). The format is cell-based, rat. Conditions: for magnitude of the inhibition when PTH is added compared with without (in words): PTH 10^−8 M added to cultures; for inhibition of osteoclast resorption activity in vitro (in words): osteoclast pit assay, dose not given. As to the method: It will be appreciated that the osteoclast pit assay is a well established in vitro model of bone resorption and readily known to one skilled in the art. Briefly, medium containing a sample to be tested, e.g. 30 mg or less of freeze-dried hydrophilic fraction A per ml, is added to osteoclasts of new-born rats settled on ivory slices. After 24 hours of incubation, the tartrate-resistant acid phosphatase positive multi-nucleated cells, i.e. osteoclasts, are counted. Subsequently, the number of resorption pits is determined. […] For the analysis of statistical significance, the ratios of the treated groups±their respective SEMs are compared to the 95% confidence interval of the SEM of the negative control. […] The inhibitory effect on osteoclasts is assessed by counting the osteoclast resorption pits on the ivory slice. […] To assess in vitro the bone resorbing inhibitory activity, the osteoclast pit assay is used. Medium containing 30 mg or less of freeze-dried fraction per ml is added to osteoclasts of new-born rats settled on ivory slices. After 24 hours of incubation, the tartrate-resistant acid phosphatase positive multi-nucleated cells, i.e. osteoclasts, are counted. Subsequently, the number of resorption pits is determined. […] For the analysis of statistical significance, the ratios of the treated groups±their respective SEMs are compared to the 95% confidence interval of the SEM of the negative control. • a) TLC-Screening and Yields of the RP-MPLC Fractionations. Bioassay (in vitro assessment of osteoclast activity). Osteoclasts were isolated from femora and tibiae of 2-day-old rats and settled for 40 min onto 4×4 mm ivory slices used as the mineralized substrate. After washing off non-adherent cells, individual slices were transferred to 48-well tissue culture plates and incubated for 24 h at 37° C. in a 5% CO2/air atmosphere (14;15) in medium containing 10% fetal bovine serum (FBS) with or without the material to be tested. The concentration of bicarbonate in the MEM Earle's medium was reduced to 15 mM by addition of 12M HCl. In each experiment calcitonin (salmon calcitonin, Novartis Pharma, Basel, Switzerland) was added as positive control at the concentration of 10^-11 M or 10^-12 M. In one experiment parathyroid hormone (PTH; bovine 1-34, Bachem, Bubendorf, Switzerland) was added at the concentration of 10^-8 M, in order to stimulate bone resorption. For each material to be tested 8 slices were used, for the untreated control 2×8 slices were used. After fixation osteoclasts were stained for tartrate-resistant acid-phosphatase (TRAP) (kit 386-A, Sigma, Buchs, Switzerland) and were counted blinded as TRAP positive (TRAP+) multinucleated (more than 2 nuclei) cells (MNC). After removing the cells, the slices were sputter coated with gold and the resorption pits counted blinded in a process described in Vitté, C.; Fleisch, H.: Guenther, H. L. Bisphosphonates induce osteoblasts to secrete an inhibitor of osteoclast-mediated resorption. Endocrinology 1996, 137, 2324-2333. Osteoclastic resorption activity is calculated as the ratio: resorption pits/TRAP+MNC.

Entries after “also recorded” stand apart in the source; their conditions may differ.

As for “CT: salmon calcitonin, Novartis Pharma, positive control [reference compound]”, the “magnitude of the inhibition when PTH is added compared with without (in words)” value is on record as “somewhat smaller”. For the same compound, the “Pits/TRAP+ cells ± SEM” value (10^−12 M, 24 h, neg. control 0.489 ± 0.128) worked out at 0.061 ± 0.063. The “Pits/TRAP+ cells ± SEM” value (10^−12 M, neg. control 0.739 ± 0.138) was 0.116 ± 0.030.

Take `C/C=C/[S+]([O-])C[C@H](NC(=O)CC[C@H](N)C(=O)O)C(=O)O` (relative stereo) [A1-4C, γ-L-glutamyl-trans-S-1-propenyl-L-cysteine sulfoxide]: the “magnitude of the inhibition when PTH is added compared with without (in words)” value is reported as “somewhat smaller” and the “inhibition of osteoclast resorption activity in vitro (in words)” value (shortened to “inhibition … in vitro (in words)”) is reported as “only active fraction”. The “activity on osteoclast resorption (in words)” value (0.53 mg/mL, i.e. 1.7 mM GPCS) is “active”. The “Pits/TRAP+ cells ± SEM” value (0.53 mg/mL, neg. control 0.739 ± 0.138) is recorded as 0.325 ± 0.108. The “inhibition of osteoclast resorption activity (in words)” value (2 mM) is “not significant”. Further, for the setting “2, 4 and 8 mM, with or without PTH 10^−8 M (FIG. 4)”, the “resorption activity of osteoclasts (in words)” value is on record as “inhibits the resorption activity of osteoclasts dose-dependently”. Further, the minimal effective dose result (cultures not stimulated with PTH) was “around 2 mM”. The “minimal effective dose, graphical interpolation from FIG. 4” value (cultures stimulated with PTH) is on record as “around 3 mM”. Besides, where the note is “listed as Fraction A 1-4C”, the “inhibition … in vitro (in words)” value was “inhibited osteoclast activity nearly as strong as fraction A 1-4”. Besides, the “inhibition … in vitro (in words)” value (listed as Fraction A1-4C) is given as “inhibits osteoclast activity similar to fraction A1-4”. The “inhibition … in vitro (in words)” value (listed as fraction A1-4C) is on record as “significantly (p<0.5) inhibit bone resorption; also recorded: inhibiting osteoclast activity”.
